This is an account of results in PubChem BioAssay (NCI).

Test systems include COLO 205 colon; EKVX NSCLC; HOP-92 NSCLC; M14 melanoma; NCI-H23 lung; NCI-H460 lung; OVCAR-8 ovarian; SF-268 CNS; SK-MEL-5 melanoma; U251 CNS.
Common to all, as to test: DTP human tumour cell line panel, 48 h

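Tested at 5 concentrations; 48 h exposure; 96-well plates; endpoints linearly interpolated, else capped at highest concentration. GI50 is the concentration that inhibits growth by half. TGI: total growth inhibition.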

With `COc1ccc(C2C(C#N)=C(N)OC3=C2COc2ccc(F)cc23)cc1OC` (centres undefined), the GI50 (as a rule, the concentration at which growth is held to half of that of the control) is 19.1 µM in the assay with COLO 205 colon; 17.8 µM with EKVX NSCLC; 47.6 µM in the assay on HOP-92 NSCLC; 40.1 µM in the assay on M14 melanoma; 13.1 µM with NCI-H23 lung; 40 µM with NCI-H460 lung. The GI50 in the assay with OVCAR-8 ovarian was 28.5 µM; in the assay with SF-268 CNS it was 33.3 µM; in the assay on SK-MEL-5 melanoma it was 12.9 µM; with U251 CNS, 17 µM. For the same compound, the TGI (commonly the concentration giving total growth inhibition) in the assay on COLO 205 colon is more than 100 µM; with EKVX NSCLC, more than 100 µM; with HOP-92 NSCLC, more than 100 µM; with M14 melanoma, more than 100 µM; in the assay on NCI-H23 lung it was 36.7 µM; in the assay on NCI-H460 lung, more than 100 µM. Further, the TGI in the assay with OVCAR-8 ovarian was more than 100 µM; in the assay on SF-268 CNS, more than 100 µM; in the assay on SK-MEL-5 melanoma, 44.9 µM; with U251 CNS it was 59.2 µM.

Regarding `C#C[C@]1(O)CC[C@H]2[C@@H]3CC=C4c5sc(Nc6ccccc6)nc5CC[C@]4(C)[C@H]3CC[C@@]21C`, the GI50 is 2.18 µM with COLO 205 colon; 2.83 µM in the assay with EKVX NSCLC; 3.81 µM with HOP-92 NSCLC; 1.6 µM in the assay with M14 melanoma; 2.37 µM in the assay on NCI-H23 lung; 2.4 µM in the assay on NCI-H460 lung. For the same compound, the GI50 in the assay on OVCAR-8 ovarian was 2.71 µM; in the assay on SF-268 CNS, 2.19 µM; in the assay on SK-MEL-5 melanoma it was 1.72 µM; with U251 CNS, 0.886 µM. The TGI is 5.39 µM in the assay with COLO 205 colon; 13.8 µM with EKVX NSCLC; 29.7 µM in the assay on HOP-92 NSCLC; 4.51 µM in the assay with M14 melanoma; 13.1 µM in the assay on NCI-H23 lung; 6.4 µM in the assay with NCI-H460 lung. Moreover, the TGI with OVCAR-8 ovarian was determined as 26.8 µM; in the assay on SF-268 CNS, 10.1 µM; in the assay on SK-MEL-5 melanoma, 3.26 µM; in the assay on U251 CNS, 3.18 µM.

Regarding `O=c1[nH]c2cc(Cl)ccc2n1C1CCN(CCCC(c2ccc(F)cc2)c2ccc(F)cc2)CC1`, the GI50 with COLO 205 colon is 1.23 µM; in the assay on EKVX NSCLC, 1.45 µM; in the assay on HOP-92 NSCLC it was 1.01 µM; in the assay with M14 melanoma, 1.55 µM; in the assay with NCI-H23 lung, 1.74 µM; in the assay with NCI-H460 lung it was 1.74 µM. The GI50 is 1.69 µM in the assay on OVCAR-8 ovarian, 1.56 µM in the assay with SF-268 CNS, 1.55 µM with SK-MEL-5 melanoma and 1.54 µM in the assay with U251 CNS. The TGI in the assay with COLO 205 colon was 2.6 µM; with EKVX NSCLC, 3.38 µM; with HOP-92 NSCLC, 2.41 µM; with M14 melanoma it was 3.05 µM; in the assay on NCI-H23 lung, 3.43 µM; in the assay with NCI-H460 lung, 3.14 µM. The TGI is 3.56 µM with OVCAR-8 ovarian, 2.98 µM with SF-268 CNS, 2.89 µM in the assay with SK-MEL-5 melanoma and 2.87 µM with U251 CNS.

As to `Cc1cc(NC(=O)c2ccc(C)c(Nc3nccc(-c4cccnc4)n3)c2)cc(-n2cnc(C)c2)c1`, the GI50 with COLO 205 colon was 2.4 µM; in the assay on EKVX NSCLC, 4.27 µM; in the assay on HOP-92 NSCLC, 0.716 µM; in the assay with M14 melanoma, 2.71 µM; in the assay on NCI-H23 lung, 9.44 µM; with NCI-H460 lung, 0.0794 µM. For the same compound, the GI50 in the assay with OVCAR-8 ovarian was 4.27 µM; in the assay with SF-268 CNS, 5.46 µM; in the assay on SK-MEL-5 melanoma, 5.04 µM; with U251 CNS it was 1.99 µM. Further, the TGI was 7.23 µM in the assay on COLO 205 colon; 21.4 µM in the assay with EKVX NSCLC; 2.78 µM in the assay with HOP-92 NSCLC; 10.1 µM with M14 melanoma; more than 34.1 µM in the assay on NCI-H23 lung; 4.16 µM in the assay on NCI-H460 lung. The TGI with OVCAR-8 ovarian is 13.7 µM; with SF-268 CNS, 13.4 µM; with SK-MEL-5 melanoma, 12.7 µM; with U251 CNS it was 7.61 µM.

`Cc1n(Cc2ccc3ccccc3c2)cc[n+]1Cc1ccc2ccccc2c1`: the GI50 in the assay with COLO 205 colon was 0.369 µM; in the assay on EKVX NSCLC, 2.32 µM; in the assay on HOP-92 NSCLC, 0.673 µM; in the assay on M14 melanoma it was 1.12 µM; with NCI-H23 lung, 0.717 µM; with NCI-H460 lung, 1.59 µM. The GI50 with OVCAR-8 ovarian was 1.21 µM; in the assay on SF-268 CNS, 1.14 µM; in the assay with SK-MEL-5 melanoma, 0.628 µM; in the assay on U251 CNS, 0.818 µM. The TGI in the assay with COLO 205 colon is 1.59 µM; in the assay with EKVX NSCLC it was 17.1 µM; with HOP-92 NSCLC, 3.64 µM; with M14 melanoma, 3.46 µM; in the assay with NCI-H23 lung, 2.93 µM; in the assay on NCI-H460 lung it was 10.7 µM. For the same compound, the TGI in the assay on OVCAR-8 ovarian amounted to 10.3 µM; in the assay on SF-268 CNS, 8.69 µM; in the assay on SK-MEL-5 melanoma, 1.87 µM; with U251 CNS, 7.98 µM.

On to `Cc1sc2nc(NCCc3c[nH]c4ccc(Cl)cc34)[nH]c(=O)c2c1C`, for which the GI50 in the assay on COLO 205 colon is 1.74 µM; in the assay on EKVX NSCLC, 2.76 µM; in the assay on HOP-92 NSCLC it was 2.06 µM; in the assay with M14 melanoma, 2.4 µM; with NCI-H23 lung it was 2.39 µM; in the assay with NCI-H460 lung, 2.54 µM. The GI50 was 2.12 µM with OVCAR-8 ovarian, 2.28 µM in the assay on SF-268 CNS, 1.98 µM in the assay on SK-MEL-5 melanoma and 2.26 µM in the assay with U251 CNS. In addition, the TGI was determined as 3.77 µM in the assay on COLO 205 colon; 5.64 µM in the assay on HOP-92 NSCLC; 9.49 µM in the assay with M14 melanoma; 6.22 µM with NCI-H23 lung; 7.95 µM in the assay with NCI-H460 lung; 5.69 µM in the assay with OVCAR-8 ovarian. In addition, the TGI was found to be 8.13 µM in the assay on SF-268 CNS, 3.88 µM with SK-MEL-5 melanoma and 6.94 µM with U251 CNS.
